Test results published in PubChem BioAssay AID2060887 (Molecular Pharmacology Branch, DTP, NCI, 2025).
pIC50: −log10 of the molar value.

Test system: 782815-120-R-J1-PDC complex spheroid viability
Experiment: Anticancer human tumor 782815-120-R-J1-PDC patient-derived colon adenocarcinoma cell line growth inhibition [RAS]
Conditions: for pIC50: curve of first compound; for viability, T/C: stronger effect = lower value
Description: RAS pathway inhibitors in Combinations in Complex Spheroids
A high-throughput screen of multi-cell type tumor spheroids was designed to identify active combinations of RAS pathway inhibitors and targeted small molecules. Complex spheroids include a stromal component modeled by human endothelial cells (HUVEC) and fibroblasts modeled by human mesenchymal stem cells (MSCs). The concentration ranges selected for each drug and investigational agent were based upon clinically achievable concentrations if the clinical Cmax of the agent was known.
Compounds. The drugs and investigational agents: abemaciclib (NSC768073), cobimetinib (NSC768068), divarasib (GDC6063, NSC841802), docetaxel (NSC628503), GDC-1971 (RLY-1971, NSC841576), gemcitabine (NSC613327), inavolisib (NSC800729), ipatasertib (NSC767898), KB-0742 (NSC834161), MRTX-1133 (NSC836407), osimertinib (NSC779217), RMC-4630 (NSC839698), RMC-6236 (NSC851965), RMC-6291 (NSC852671), Ro-3306 (NSC812927), sapanisertib (NSC764658), SN-38 (NSC673596), staurosporine (NSC755774), SY5609 (NSC837396), and tovorafenib (DAY101, NSC766906), were obtained from the National Cancer Institute (NCI) Developmental Therapeutics Program Chemical Repository. The FDA-approved anticancer drug set is available from the NCI Developmental Therapeutics Program. […] The stock solutions were prepared in dimethyl sulfoxide (DMSO, Sigma-Aldrich, St. Louis, MO, cat. D2650) at 800-fold the tested concentration and stored at -70 degrees C prior to their use. All drugs and investigational agents were tested over a range starting from a high concentration at or near the clinical Cmax and decreasing in half-log increments. If the clinical Cmax for an agent had not been determined, the highest concentration tested was 10 microM.
Cell Culture. All cells were maintained in an incubator at 37 degrees C and 5% CO2 with 95% humidity. The PDC lines were cultured according to standard operating procedures established by the NCI PDMR. All PDCs were thawed and cultured in Matrigel-coated flasks prepared with a working solution of 1X Ham's F-12 nutrient mix, without supplementation (Invitrogen, Waltham, MA, cat. 11765054), 100 U/mL penicillin-streptomycin (Invitrogen, cat. 15140122), and 2.5% Matrigel (Corning Inc., Corning, NY, cat. 354248) for the first three passages. The 362531-283-R-J2-PDC and 782815-120-R-J1-PDC lines were cultured in 6C/Colon 1B media, which includes advanced DMEM/F-12 (Thermo Fisher Scientific, cat. 12634028), 10 mM HEPES (Thermo Fisher Scientific, cat. 15630080), 1X GlutaMAX supplement (Thermo Fisher Scientific, cat. 35050061), 0.1 mg/mL primocin (InvivoGen, San Diego, CA, cat. ant-pm-2), 10% defined fetal bovine serum, heat inactivated (HyClone Laboratories Inc., Logan, UT, cat. SH30070.03HI), 50% L-WRN conditioned media (ATCC, cat. CRL-3276), 1.25 mM N-Acetyl-L-cysteine (Sigma-Aldrich, cat. A9165), 10 mM nicotinamide (Sigma-Aldrich, cat. N0636), 1X B-27 supplement (Thermo Fisher Scientific, cat. 17504044), 1X N-2 supplement (Thermo Fisher Scientific, cat. 17502048), 50 ng/mL human EGF (Thermo Fisher Scientific, cat. PHG0311), and 10 microM Y-27632 dihydrochloride (Tocris Bioscience, cat. 1254). The K12877-001-R-J1-PDC line was cultured in 6I media, which includes all 6C/Colon 1B media plus 10 ng/mL human FGF-10 (PeproTech, cat. 100-26), 1 ng/mL human FGF-2 (PeproTech, cat. 100-18B), 1 µM prostaglandin E2 (Tocris Bioscience, cat. 2296), […] hydrocortisone (Sigma-Aldrich, cat. H4001), and […] bovine insulin (Sigma-Aldrich, cat. I6634). The K86415-001-R-J1-PDC line was cultured in 6D media, which includes all 6C/Colon 1B media components minus the L-WRN conditioned media. The 485176-168-R4-J1-PDC was cultured in PANC media, which includes all 6C/Colon 1B media plus 100 ng/mL human FGF-10 (PeproTech, cat. 100-26), 500 nM SB-431542 (Selleckchem, cat. S1067), and 10 nM gastrin (Tocris Bioscience, cat. 3006). […]

[1] = second compound 0.0316 µM, first compound 0.0316 µM
[2] = second compound 0.0316 µM, first compound 0.1 µM
[3] = second compound 0.0316 µM, first compound 0.316 µM
[4] = second compound 0.0316 µM, first compound 1 µM
[5] = second compound 0.1 µM, first compound 0.0316 µM
[6] = second compound 0.1 µM, first compound 0.1 µM
[7] = second compound 0.1 µM, first compound 0.316 µM
[8] = second compound 0.1 µM, first compound 1 µM
[9] = second compound 0.316 µM, first compound 0.0316 µM
[10] = second compound 0.316 µM, first compound 0.1 µM
[11] = second compound 0.316 µM, first compound 0.316 µM
[12] = second compound 0.316 µM, first compound 1 µM
[13] = second compound 1 µM, first compound 0.0316 µM
[14] = second compound 1 µM, first compound 0.1 µM
[15] = second compound 1 µM, first compound 0.316 µM
[16] = second compound 1 µM, first compound 1 µM
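Note: spheroids exposed to compounds for 7 days before reading.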
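Throughout, for viability, T/C: 100% = DMSO vehicle control viability.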

CC1(O)CCCC1n1c(=O)c(C(F)F)cc2cnc(NC3CCN(S(C)(=O)=O)CC3)nc21 (centres undefined) + C=CC(=O)N1CCN(c2nc(OCC3CCCN3C)nc3c(F)c(-c4nc(N)cc(C)c4C(F)(F)F)c(Cl)cc23)C(C)C1
pIC50 (second compound 0.00316 µM): 5.44
pIC50 (second compound 0.01 µM): 5.63
pIC50 (second compound 0.0316 µM): 5.47
pIC50 (second compound 0.1 µM): 5.44
pIC50 (second compound 0.316 µM): 5.46
pIC50 (second compound 1 µM): 6.10
viability, T/C (second compound 0.00316 µM, first compound 0.0316 µM): 61.5%
viability, T/C (second compound 0.00316 µM, first compound 0.1 µM): 53%
viability, T/C (second compound 0.00316 µM, first compound 0.316 µM): 54.5%
viability, T/C (second compound 0.00316 µM, first compound 1 µM): 57.6%
viability, T/C (second compound 0.00316 µM, first compound 3.16 µM): 53.8%
viability, T/C (second compound 0.00316 µM, first compound 10 µM): 22%
viability, T/C (second compound 0.01 µM, first compound 0.0316 µM): 72.5%
viability, T/C (second compound 0.01 µM, first compound 0.1 µM): 52.3%
viability, T/C (second compound 0.01 µM, first compound 0.316 µM): 53.3%
viability, T/C (second compound 0.01 µM, first compound 1 µM): 51.8%
viability, T/C (second compound 0.01 µM, first compound 3.16 µM): 52.1%
viability, T/C (second compound 0.01 µM, first compound 10 µM): 19%
viability, T/C [1]: 58.7%
viability, T/C [2]: 56.4%
viability, T/C [3]: 49.2%
viability, T/C [4]: 55.1%
viability, T/C (second compound 0.0316 µM, first compound 3.16 µM): 51.8%
viability, T/C (second compound 0.0316 µM, first compound 10 µM): 22.1%
viability, T/C [5]: 65.4%
viability, T/C [6]: 50.7%
viability, T/C [7]: 51.3%
viability, T/C [8]: 52.3%
viability, T/C (second compound 0.1 µM, first compound 3.16 µM): 54.2%
viability, T/C (second compound 0.1 µM, first compound 10 µM): 18.6%
viability, T/C [9]: 56.4%
viability, T/C [10]: 52.8%
viability, T/C [11]: 48.9%
viability, T/C [12]: 50.9%
viability, T/C (second compound 0.316 µM, first compound 3.16 µM): 53.4%
viability, T/C (second compound 0.316 µM, first compound 10 µM): 19.8%
viability, T/C [13]: 61%
viability, T/C [14]: 55.7%
viability, T/C [15]: 47.5%
viability, T/C [16]: 46.7%
viability, T/C (second compound 1 µM, first compound 3.16 µM): 44.9%
viability, T/C (second compound 1 µM, first compound 10 µM): 18.3%

Nc1ccn(C2OC(CO)C(O)C2(F)F)c(=O)n1 (centres undefined) + C#Cc1c(F)ccc2cc(O)cc(-c3ncc4c(N5CC6CCC(C5)N6)nc(OCC56CCCN5CC(F)C6)nc4c3F)c12
pIC50 (second compound 0.0316 µM): 7.03
pIC50 (second compound 0.1 µM): 7.13
pIC50 (second compound 0.316 µM): 7.07
pIC50 (second compound 1 µM): 7.15
pIC50 (second compound 3.16 µM): 7.07
pIC50 (second compound 10 µM): 7.20
viability, T/C (second compound 0.0316 µM, first compound 0.00316 µM): 103%
viability, T/C (second compound 0.0316 µM, first compound 0.01 µM): 92.8%
viability, T/C [1]: 64.8%
viability, T/C [2]: 54%
viability, T/C [3]: 31.3%
viability, T/C [4]: 28.6%
viability, T/C (second compound 0.1 µM, first compound 0.00316 µM): 101%
viability, T/C (second compound 0.1 µM, first compound 0.01 µM): 91.1%
viability, T/C [5]: 62.3%
viability, T/C [6]: 47.8%
viability, T/C [7]: 29.6%
viability, T/C [8]: 26.3%
viability, T/C (second compound 0.316 µM, first compound 0.00316 µM): 97.8%
viability, T/C (second compound 0.316 µM, first compound 0.01 µM): 92.2%
viability, T/C [9]: 58.7%
viability, T/C [10]: 50.2%
viability, T/C [11]: 37.1%
viability, T/C [12]: 25.3%
viability, T/C (second compound 1 µM, first compound 0.00316 µM): 97.9%
viability, T/C (second compound 1 µM, first compound 0.01 µM): 81.9%
viability, T/C [13]: 60.6%
viability, T/C [14]: 43.5%
viability, T/C [15]: 38.1%
viability, T/C [16]: 26.7%
viability, T/C (second compound 3.16 µM, first compound 0.00316 µM): 96.8%
viability, T/C (second compound 3.16 µM, first compound 0.01 µM): 89.7%
viability, T/C (second compound 3.16 µM, first compound 0.0316 µM): 63.1%
viability, T/C (second compound 3.16 µM, first compound 0.1 µM): 49%
viability, T/C (second compound 3.16 µM, first compound 0.316 µM): 36.2%
viability, T/C (second compound 3.16 µM, first compound 1 µM): 28.1%
viability, T/C (second compound 10 µM, first compound 0.00316 µM): 101%
viability, T/C (second compound 10 µM, first compound 0.01 µM): 95.2%
viability, T/C (second compound 10 µM, first compound 0.0316 µM): 61.9%
viability, T/C (second compound 10 µM, first compound 0.1 µM): 42%
viability, T/C (second compound 10 µM, first compound 0.316 µM): 35.6%
viability, T/C (second compound 10 µM, first compound 1 µM): 27.1%
